Measured values from patent publication US7517874B2 (priority 2007, dated 2009).
Where two headings read alike, the source gives them in different places.

Columns and labels:
[1] = biological target: human CB1 receptor (hCB1) (Homo sapiens, UniProt P21554); assay: cell-based; type: cell-based
Description: (§1) The ability of compounds to act as agonists or inverse agonists at human CB2 and CB1 receptors (hCB2, hCB1, respectively) and at the rat CB2 receptor (rCB2) was determined by measuring changes in intracellular cAMP levels. Chinese Hamster Ovary (CHO-K1) cell lines stably expressing hCB2 (Genebank: X74328) or hCB1 (Genebank: X54937) were purchased from Euroscreen (Gosselies, Belgium). The rat CB2 receptor was expressed from genomic DNA (provided by M. Abood, California Pacific Medical Center) in CHO-K1 cells from expression plasmid vector, pcDNA3.1.
(§2) Cell lines were grown in suspension in EX-CELL 302 CHO Serum-free medium (Sigma, cat #14324C) supplemented with 1% Fetal Bovine Serum, glutamine and non-essential amino-acids under 0.4 mg/mL G418 selection.
(§3) Receptor mediated responses were determined by measuring changes in intracellular cAMP using LANCE cAMP detection kit (cat #AD0264, Perkin Elmer, Wellesley, Mass.) based on time-resolved fluorescence resonance energy transfer (TR-FRET). Changes in cAMP were determined in cells pre-incubated with IBMX (isobutyl methylxanthine) and prestimulated with NKH-477 (a water soluble forskolin derivative, cat #1603, Tocris, Ellisville, Mo.) to increase basal cAMP levels as detailed below.
(§4) On the day of the experiment, cells were spun at low speed for 5 min at room temperature. The supernatant was removed and cells were resuspended in stimulation buffer (Hanks Buffered Salt Solution/5 mM HEPES, containing 0.5 mM IBMX (cat #17018, Sigma) and 0.02% BSA (Perkin-Elmer, cat #CR84-100)). Cell clumps were removed by filtering through cell strainer 40 μm (BD Falcon, Discovery Labware, Bedford, Mass.) and diluted to 2×10^5 cells/mL. Antibody supplied with the LANCE cAMP immunoassay kit was then added according to the manufacturer's instructions. An aliquot of cells was taken for un-induced controls. To the remaining cells was added NKH-477 (a water soluble forskolin derivative, Tocris cat #1603) to a final concentration of 2-8 μM. Cells were then incubated for 30 min at room temperature prior to adding to Proxiplates containing test compounds (final DMSO concentration was less than 0.5%) with a Multidrop bulk dispenser, followed by a sixty minute incubation at room temperature. The response was stopped by addition of the detection mix supplied with the LANCE kit. The reagents were allowed to equilibrate for three hours prior to reading on an Envision multi-mode detector (Perkin-Elmer). TR-FRET was measured using a 330-380 nm excitation filter, a 665 nm emission filter, dichroic mirror 380 nm and Z=1 mm. Cyclic AMP concentrations in each well were back-calculated from a cAMP standard curve run concurrently during each assay. Each plate contained 16 wells of forskolin stimulated cells and 16 wells of forskolin plus CP55,940-treated cells. Cells were treated with 1 μM CP55,940 (Tocris cat. #0949). Concentrations of cAMP were expressed as a percent of the difference of these two groups of wells. Concentration-response data including EC50 (the concentration of compound producing 50% of the maximal response) and intrinsic activity (the percent maximal activation compared to full activation by CP55,940) were determined using a four-parameter non-linear regression algorithm (Xlfit equation 251, IDBS).

rat CB2 receptor (rCB2) = biological target: T1, rat CB2 receptor (rCB2) (Rattus norvegicus, UniProt Q9QZN9); assay: cell-based; type: cell-based; details: for +/− RCB2: agonist or inverse agonist at rCB2
T1 sequence (Q9QZN9 1-360): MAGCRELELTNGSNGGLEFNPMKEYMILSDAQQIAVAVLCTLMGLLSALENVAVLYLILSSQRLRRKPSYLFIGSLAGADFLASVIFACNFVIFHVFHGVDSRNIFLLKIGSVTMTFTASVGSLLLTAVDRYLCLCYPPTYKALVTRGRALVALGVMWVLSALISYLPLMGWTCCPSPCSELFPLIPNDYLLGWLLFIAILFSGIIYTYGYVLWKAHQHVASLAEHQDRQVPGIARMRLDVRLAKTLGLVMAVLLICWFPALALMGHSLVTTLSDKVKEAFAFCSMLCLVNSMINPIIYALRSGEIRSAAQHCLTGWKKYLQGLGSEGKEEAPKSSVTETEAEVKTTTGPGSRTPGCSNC
Description: as §1, §2, §3, §4

[2] = groups >100 nM-10 μM and >10 μM, cAMP, CHO-K1 hCB1, read-out: EC50 HCB1

Chain of human CB1 receptor (hCB1) (P21554 whole entry): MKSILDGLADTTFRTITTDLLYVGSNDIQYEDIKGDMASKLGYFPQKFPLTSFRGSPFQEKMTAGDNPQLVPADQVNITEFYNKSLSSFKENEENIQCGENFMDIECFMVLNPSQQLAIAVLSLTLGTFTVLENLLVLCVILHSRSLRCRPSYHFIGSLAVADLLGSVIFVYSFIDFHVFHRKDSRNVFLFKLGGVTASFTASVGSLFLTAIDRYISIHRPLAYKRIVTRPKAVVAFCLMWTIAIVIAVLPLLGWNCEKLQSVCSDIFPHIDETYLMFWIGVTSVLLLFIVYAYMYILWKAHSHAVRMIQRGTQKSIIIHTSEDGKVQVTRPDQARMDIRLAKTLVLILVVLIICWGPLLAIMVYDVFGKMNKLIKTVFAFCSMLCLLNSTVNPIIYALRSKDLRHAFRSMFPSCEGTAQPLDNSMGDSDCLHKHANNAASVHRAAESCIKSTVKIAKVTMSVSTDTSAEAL

Row | Structure (SMILES) | EC50 [1] [nM] | also measured
1 | CNC(=O)[C@@H](NC(=O)c1nc(-c2ccccc2)n2c1CN(C(=O)OC(C)(C)C)CC2)C(C)(C)C [Compound 1, (S)-tert-butyl 1-(3,3-dimethyl-1-(methylamino)-1-oxobutan-2-ylcarbamoyl)-3-phenyl-5,6-dihydroimidazo[1,5-a]pyrazine-7(8H)-carboxylate] | > 10000 | +/− RCB2 (rat CB2 receptor (rCB2)): −
2 | CNC(=O)[C@@H](NC(=O)c1nc(-c2ccccc2)n2c1CNCC2)C(C)(C)C [Compound 2, (S)-N-(3,3-dimethyl-1-(methylamino)-1-oxobutan-2-yl)-3-phenyl-5,6,7,8-tetrahydroimidazo[1,5-a]pyrazine-1-carboxamide] | > 10000 | +/− RCB2 (rat CB2 receptor (rCB2)): +
3 | CNC(=O)[C@@H](NC(=O)c1nc(-c2cccc(C(F)(F)F)c2)n2c1CNCC2)C(C)(C)C [Compound 3, (S)-N-(3,3-dimethyl-1-(methylamino)-1-oxobutan-2-yl)-3-(3-(trifluoromethyl)phenyl)-5,6,7,8-tetrahydroimidazo[1,5-a]pyrazine-1-carboxamide] | > 10000 | +/− RCB2 (rat CB2 receptor (rCB2)): −
4 | CNC(=O)[C@@H](NC(=O)c1nc(-c2cccc(F)c2)n2c1CNCC2)C(C)(C)C [Compound 4, (S)-N-(3,3-dimethyl-1-(methylamino)-1-oxobutan-2-yl)-3-(3-fluorophenyl)-5,6,7,8-tetrahydroimidazo[1,5-a]pyrazine-1-carboxamide] | > 10000 | EC50 (rat CB2 receptor (rCB2)): > 10 µM
5 | CNC(=O)[C@@H](NC(=O)c1nc(-c2ccc(C(F)(F)F)cc2)n2c1CNCC2)C(C)(C)C [Compound 5, (S)-N-(3,3-dimethyl-1-(methylamino)-1-oxobutan-2-yl)-3-(4-(trifluoromethyl)phenyl)-5,6,7,8-tetrahydroimidazo[1,5-a]pyrazine-1-carboxamide] | > 10000 | +/− RCB2 (rat CB2 receptor (rCB2)): −
6 | CNC(=O)[C@@H](NC(=O)c1nc(-c2csc3ccccc23)n2c1CNCC2)C(C)(C)C [Compound 20, (S)-3-(benzo[b]thiophen-3-yl)-N-(3,3-dimethyl-1-(methylamino)-1-oxobutan-2-yl)-5,6,7,8-tetrahydroimidazo[1,5-a]pyrazine-1-carboxamide] | > 10000 | 
7 | CNC(=O)[C@@H](NC(=O)c1nc(-c2ccsc2)n2c1CN(C)CC2)C(C)(C)C [Compound 73, (S)-N-(3,3-dimethyl-1-(methylamino)-1-oxobutan-2-yl)-7-methyl-3-(thiophen-3-yl)-5,6,7,8-tetrahydroimidazo[1,5-a]pyrazine-1-carboxamide] | > 10000 | 
8 | CNC(=O)[C@@H](NC(=O)c1nc(-c2ccsc2)n2c1CN(CC1CC1)CC2)C(C)(C)C [Compound 74, (S)-7-(cyclopropylmethyl)-N-(3,3-dimethyl-1-(methylamino)-1-oxobutan-2-yl)-3-(thiophen-3-yl)-5,6,7,8-tetrahydroimidazo[1,5-a]pyrazine-1-carboxamide] | > 10000 | 
9 | CNC(=O)[C@H](C)NC(=O)c1nc(-c2ccccc2)n2c1CN(C)CC2 [Compound 78, (S)-7-methyl-N-(1-(methylamino)-1-oxopropan-2-yl)-3-phenyl-5,6,7,8-tetrahydroimidazo[1,5-a]pyrazine-1-carboxamide] |  | EC50 [1, 2]: > 10000 nM
10 | CNC(=O)[C@@H](NC(=O)c1nc(-c2cscc2C)n2c1CN(C)CC2)C(C)(C)C [Compound 81, (S)-N-(3,3-dimethyl-1-(methylamino)-1-oxobutan-2-yl)-7-methyl-3-(4-methylthiophen-3-yl)-5,6,7,8-tetrahydroimidazo[1,5-a]pyrazine-1-carboxamide] | > 10000 | 
11 | CC(C)(CO)CNC(=O)c1nc(-c2ccccc2)n2c1CN(CC1CC1)CC2 [Compound 83, 7-(cyclopropylmethyl)-N-(3-hydroxy-2,2-dimethylpropyl)-3-phenyl-5,6,7,8-tetrahydroimidazo[1,5-a]pyrazine-1-carboxamide] |  | EC50 [1, 2]: > 10000 nM
12 | CC(C)(C)[C@@H](CO)NC(=O)c1nc(-c2ccccc2)n2c1CN(CC1CC1)CC2 [Compound 84, (S)-7-(cyclopropylmethyl)-N-(1-hydroxy-3,3-dimethylbutan-2-yl)-3-phenyl-5,6,7,8-tetrahydroimidazo[1,5-a]pyrazine-1-carboxamide] | > 10000 | 
13 | CNC(=O)[C@@H](NC(=O)c1nc(-c2ccccc2)n2c1CN(S(=O)(=O)c1ccc(C(F)(F)F)cc1)CC2)C(C)(C)C [Compound 107, (S)-N-(3,3-dimethyl-1-(methylamino)-1-oxobutan-2-yl)-3-phenyl-7-(4-(trifluoromethyl)phenylsulfonyl)-5,6,7,8-tetrahydroimidazo[1,5-a]pyrazine-1-carboxamide] | > 10000 | 
14 | CNC(=O)[C@@H](NC(=O)c1nc(-c2ccccc2)n2c1CN(S(=O)(=O)c1ccc(C#N)cc1)CC2)C(C)(C)C [Compound 108, (S)-7-(4-cyanophenylsulfonyl)-N-(3,3-dimethyl-1-(methylamino)-1-oxobutan-2-yl)-3-phenyl-5,6,7,8-tetrahydroimidazo[1,5-a]pyrazine-1-carboxamide] | > 10000 | 
15 | CNC(=O)[C@@H](NC(=O)c1nc(-c2ccsc2)n2c1CN(S(=O)(=O)c1ccc(F)cc1)CC2)C(C)(C)C [Compound 109, (S)-N-(3,3-dimethyl-1-(methylamino)-1-oxobutan-2-yl)-7-(4-fluorophenylsulfonyl)-3-(thiophen-3-yl)-5,6,7,8-tetrahydroimidazo[1,5-a]pyrazine-1-carboxamide] | > 10000 | 
16 | CNC(=O)[C@@H](NC(=O)c1nc(Br)n2c1CN(C)CC2)C(C)(C)C [Compound 203, (S)-3-bromo-N-(3,3-dimethyl-1-(methylamino)-1-oxobutan-2-yl)-7-methyl-5,6,7,8-tetrahydroimidazo[1,5-a]pyrazine-1-carboxamide] | > 10000 | 
17 | CNC(=O)[C@@H](NC(=O)c1nc(-c2ccccc2)n2c1C[N+](C)(C)CC2)C(C)(C)C [Compound 311, (S)-1-(3,3-dimethyl-1-(methylamino)-1-oxobutan-2-ylcarbamoyl)-7,7-dimethyl-3-phenyl-5,6,7,8-tetrahydroimidazo[1,5-a]pyrazin-7-ium iodide] | > 10000 | 
18 | CNC(=O)[C@@H](NC(=O)c1nc(Br)n2c1CN(C)CCC2)C(C)(C)C [Compound 324, (S)-3-bromo-N-(3,3-dimethyl-1-(methylamino)-1-oxobutan-2-yl)-8-methyl-6,7,8,9-tetrahydro-5H-imidazo[1,5-a][1,4]diazepine-1-carboxamide] | > 10000 | 
19 | CNC(=O)[C@@H](NC(=O)c1nc(C2=CCCCO2)n2c1CN(C)CCC2)C(C)(C)C [Compound 452, (S)-3-(3,4-dihydro-2H-pyran-6-yl)-N-(3,3-dimethyl-1-(metylamino)-1-oxobutan-2-yl)-8-methyl-6,7,8,9-tetrahydro-5H-imidazo[1,5-a][1,4]diazepine-1-carboxamide] |  | +/− RCB2 (rat CB2 receptor (rCB2)): +
20 | CNC(=O)[C@@H](NC(=O)c1nc(C2CCCC2)n2c1CN(C)CCC2)C(C)(C)C [Compound 497, (S)-3-cyclopentyl-N-(3,3-dimethyl-1-(methylamino)-1-oxobutan-2-yl)-8-methyl-6,7,8,9-tetrahydro-5H-imidazo[1,5-a][1,4]diazepine-1-carboxamide] |  | +/− RCB2 (rat CB2 receptor (rCB2)): +
21 | CNC(=O)[C@@H](NC(=O)c1nc(-c2ccc(Cl)cc2F)n2c1CN(C1CCNCC1)CCC2)C(C)(C)C [Compound 526, (S)-3-(4-chloro-2-fluorophenyl)-N-(3,3-dimethyl-1-(methylamino)-1-oxobutan-2-yl)-8-(piperidin-4-yl)-6,7,8,9-tetrahydro-5H-imidazo[1,5-a][1,4]diazepine-1-carboxamide] | > 10000 | 
